These results are taken from patent US10653658B2, “Biofilm inhibiting compositions enhancing weight gain in livestock” (Akeso Biomedical, Inc., priority 2015, dated 2020).

SMILES strings stand for the structures.

The subject of one test is E. coli. Nature of the test: Faecal E. coli counts in weaner pigs (Example 7). The format is in vivo. The settings on record: 0.2 g/L in drinking water; one male pig per pen. The source says:
(§1) Faeces, cleanliness and health scores was taken daily (Appendix). Faecal scores especially are indicative of diarrhea incidence, and are used in the industry as a general easy to observe gut health indicator. […] Faecal samples were stored under conditions allowing submission to SAC Veterinary Services for quantification of lactobacilli and coliforms, and their ratio (L:C ratio). These are used as key indicators for gut health, with a greater L:C ratio being indicative to better gut health.

Another test has as its system lactobacilli. Description: Faecal lactobacilli counts and L:C ratio in weaner pigs (Example 7). The format is in vivo. The settings on record: 0.2 g/L in drinking water; one male pig per pen.
Excerpt: as §1

A further test relates to Campylobacter jejuni. Description: Campylobacter carriage in chickens after oral challenge, caecal contents at day 35 (Example 9). The format is in vivo. The settings on record: 340 μM in the drinking water. As for the experimental part: A study was performed to evaluate reduction of Campylobacter carriage in chickens using ferric lactate in one treatment group, and FeQ (Q-PLEX) in a second treatment group. A third treatment group served as a positive control. The ferric lactate and FeQ were administered to the treatment groups at a concentration of 340 μM in the drinking water. Each treatment group comprised 12 birds per pen. All three treatment groups were orally challenged with 10^5 cfu of Campylobacter jejuni at day 14 of the trial. At day 35 all birds were euthanized, and quantitative bacteriology performed on caecal contents.

Test [1] relates to Pseudomonas aeruginosa PAO-1 strain.
Experimental: Pseudomonas aeruginosa PAO-1 strain was routinely grown on either LB (Luria-Bertani, Oxoid, UK) agar plates at 37° C. or in broth at 37° C. with 200 rpm shaking. UV-sterilized glass slides were incubated in either 15 mL RPMI-1640 defined medium (Sigma, UK) or 15 mL RPMI-1640 with Fe-Lac inoculated with diluted (OD600=0.01) bacteria from overnight cultures at 37° C. with 60 rpm shaking for 72 hours. The slides were removed from bacterial culture and washed with 15 mL phosphate buffered saline at room temperature for 5 minutes three times and then rinsed with distilled H2O. After washing, the slides were stained with 20 μM SYTO17 dye (Invitrogen, UK) at room temperature for 30 minutes. After removing excess staining dye and air-drying, the samples were examined using a Carl Zeiss LSM 700 Laser Scanning Microscope with ZEN 2009 imaging software (Carl Zeiss, Germany). The coverage rate of bacteria on the surface was analysed using open source Image J 1.44 software (National Institute of Health, US).
Pseudomonas aeruginosa PAO-1 strain was routinely grown on either LB (Luria-Bertani, Oxoid, UK) agar plates at 37° C. or in broth at 37° C. with 200 rpm shaking. UV-sterilized glass slides were incubated in either 15 mL RPMI-1640 defined medium (Sigma, UK) or 15 mL RPMI-1640 with Fe-Cit inoculated with diluted (OD600=0.01) bacteria from overnight cultures at 37° C. with 60 rpm shaking for 72 hours. The slides were removed from bacterial culture and washed with 15 mL phosphate buffered saline at room temperature for 5 minutes three times and then rinsed with distilled H2O. After washing, the slides were stained with 20 μM SYTO17 dye (Invitrogen, UK) at room temperature for 30 minutes. After removing excess staining dye and air-drying, the samples were examined using a Carl Zeiss LSM 700 Laser Scanning Microscope with ZEN 2009 imaging software (Carl Zeiss, Germany). The coverage rate of bacteria on the surface was analysed using open source Image J 1.44 software (National Institute of Health, US).
Pseudomonas aeruginosa PAO-1 strain was routinely grown on either LB (Luria-Bertani, Oxoid, UK) agar plates at 37° C. or in broth at 37° C. with 200 rpm shaking. […] The slides were removed from bacterial culture and washed with 15 mL phosphate buffered saline at room temperature for 5 minutes three times and then rinsed with distilled H2O. After washing, the slides were stained with 20 μM SYTO17 dye (Invitrogen, UK) at room temperature for 30 minutes. After removing excess staining dye and air-drying, the samples were examined using a Carl Zeiss LSM 700 Laser Scanning Microscope with ZEN 2009 imaging software (Carl Zeiss, Germany). The coverage rate of bacteria on the surface was analysed using open source Image J 1.44 software (National Institute of Health, US).
Pseudomonas aeruginosa PAO-1 strain was routinely grown on either LB (Luria-Bertani, Oxoid, UK) agar plates at 37° C. or in broth at 37° C. with 200 rpm shaking. UV-sterilized glass slides were incubated in either 15 mL RPMI-1640 defined medium (Sigma, UK) or 15 mL RPMI-1640 with Fe-Gly inoculated with diluted (OD600=0.01) bacteria from overnight cultures at 37° C. with 60 rpm shaking for 72 hours. The slides were removed from bacterial culture and washed with 15 mL phosphate buffered saline at room temperature for 5 minutes three times and then rinsed with distilled H2O. […] The coverage rate of bacteria on the surface was analysed using open source Image J 1.44 software (National Institute of Health, US).
For test [2] the following is noted: 0.2 g/L in drinking water; weaner pigs.
Excerpt: Animal Details • Number of treatments: 4 treatments • Number of replicates: 4 pens • Number of animals per pen: 4 pigs (balanced for sex as much as possible) • Number of pens in study: 16 pens • Animal species and breed: newly weaned pigs (Large White×Landrace) • Total number of animals: 64
There were four (4) treatments, each having 4 replicate pens with 4 pigs per replicate pen, i.e. 16 pigs per treatment or 64 pigs in total.
The feeds used were standard commercial, non-medicated feeds, tailored for weaner pigs. The feeds were offered as a 3 mm pellet and ad libitum. Water will also be available ad libitum.
The Ethology 3 building of SRUC's Easter Howgate Pig Unit were used in this study. This house consists of 6 rooms, each with 4 pens, so holds up to 24 pens of 4 m^2 each; for this study, 4 rooms were used. The animal house, which is an environmentally controlled building, were sanitized prior to use and between rounds. Pigs were placed at weaning on a thick layer of fresh white wood shavings or straw in pens. Pens were balanced as much as possible for litter origin and sex (2 intact males and 2 females). Pens were bedded with additional sawdust or straw as required, and were equipped with a single feeder and nipple drinker. Foods were available ad libitum throughout. Water were supplied via measured bottles per pen, and also available. Environmental temperature were maintained at 26° C. for the first 4 days after weaning and then decreased by 2° C. for the remainder of the experiment. Lights were on from 08:00 am till 18:00 μm and night-lights maintained between 18:00 μm and 08:00 am.
Pigs were individually weighed at day 0, 6 and 13. Pigs removed or found dead weighed, and date noted.
The volume of feed offered per pen was recorded daily from day 0 until day 12, inclusive. Feed refusals were recorded daily from day 1 until day 13, inclusive.
Pig weights, feed offered and feed refusals were used to determine averaged daily weight gain, daily feed intake and feed conversion ratio, over day 0 to 6, 6 to 13, as well as 0 to 13.
From day 0 until day 13, the volume of water offered per pen was recorded daily and water levels were recorded from the water bottles prior to morning feeding before tupping up.
Data gathered were analyzed using analysis of variance (ANOVA), to test for the effect of Fe-complex provision per se and Fe-complex type. Treatments were allocated in blocks within Ethology 3, as each of the four proposed treatments were in each of the four rooms used. As such, rooms were used as block in the model. Effects were considered significant at P<0.05.
Test [3] concerns Campylobacter jejuni NCTC 11168. Nature of the test: Biofilm formation on plastic coated UV beads (Example 6). The settings on record: Fe-Tart and Fe-Cit at 50, 100, and 300 μM; FeQ (QPLEX) at 300.

In the case of `CC(O)C(=O)O.CC(O)C(=O)O.CC(O)C(=O)O.[Fe]` (centres unmarked) [Fe-Lac, ferric lactate], in the test with E. coli, the “Faecal E. coli counts, day 0 post weaning” value is reported as 8.40 10log cfu/g; the “Faecal E. coli counts, day 4 post weaning” value is recorded as 7.80 10log cfu/g; the “Faecal E. coli counts, day 7 post weaning” value was 6.37 10log cfu/g; the “Faecal E. coli counts, day 14 post weaning” value is listed as 5.98 10log cfu/g. For the same compound, in the test on lactobacilli, the “Faecal lactobacilli counts, day 0 post weaning” value was 8.68 10log cfu/g; the “Faecal lactobacilli counts, day 4 post weaning” value was 8.76 10log cfu/g; the “Faecal lactobacilli counts, day 7 post weaning” value was 8.97 10log cfu/g; the “Faecal lactobacilli counts, day 14 post weaning” value is 8.77 10log cfu/g. In the test with lactobacilli, the “Lactobacilli to E. coli ratio (L:C), day 0 post weaning” value is on record as 1.03; the “Lactobacilli to E. coli ratio (L:C), day 4 post weaning” value was determined as 1.08; the “Lactobacilli to E. coli ratio (L:C), day 7 post weaning” value amounted to 1.33; the “Lactobacilli to E. coli ratio (L:C), day 14 post weaning” value was found to be 1.45. Moreover, in the test on Campylobacter jejuni, the “levels of Campylobacter in caeca at day 35, comparison between treatments (FIG. 11)” value is reported as “lowest levels”. Further, the “levels of Campylobacter in caeca at day 35 compared with positive control (FIG. 11)” value in the test with Campylobacter jejuni (oral challenge at day 14) was “lower levels of Campylobacter in their caeca”. The “biofilm formation (coverage rate on glass slide), dispersion effect (FIG. 5B)” value in test [1] (10, 50, and 100 μM) is given as “inhibits the formation of biofilm”. For the same compound, the “biofilm formation (coverage rate on glass slide), titration effect (FIG. 5A)” value in test [1] (50, 100, and 300 μM, 72 hours) is recorded as “inhibits the formation of biofilm”. Also, in test [2], the “Averaged body weight gain, days 0 to 4 post weaning” value is reported as 153 g/day/pig; the “Averaged body weight gain, days 0 to 7 post weaning” value is 172 g/day/pig; the “Averaged body weight gain, days 0 to 14 post weaning” value was found to be 380 g/day/pig; the “Averaged body weight gain, days 4 to 7 post weaning” value amounted to 197 g/day/pig. Also, in test [2], the “Averaged body weight gain, days 7 to 14 post weaning” value came out at 587 g/day/pig; the “Averaged daily feed intake, days 0 to 4 post weaning” value is on record as 154 g/day/pig; the “Averaged daily feed intake, days 0 to 7 post weaning” value amounted to 223 g/day/pig; the “Averaged daily feed intake, days 0 to 14 post weaning” value was found to be 378 g/day/pig. For the same compound, in test [2], the “Averaged daily feed intake, days 4 to 7 post weaning” value worked out at 315 g/day/pig; the “Averaged daily feed intake, days 7 to 14 post weaning” value is 532 g/day/pig; the “Body weights, day 0 post weaning” value is listed as 9.74 kg/pig; the “Body weights, day 4 post weaning” value is recorded as 10.35 kg/pig. Further, in test [2], the “Body weights, day 7 post weaning” value was 10.94 kg/pig; the “Body weights, day 14 post weaning” value stood at 15.05 kg/pig; the “Feed conversion ratio, days 0 to 4 post weaning” value worked out at 0.54 g/g; the “Feed conversion ratio, days 0 to 7 post weaning” value was 2.67 g/g. In test [2], the “Feed conversion ratio, days 0 to 14 post weaning” value amounted to 1.00 g/g and the “Feed conversion ratio, days 7 to 14 post weaning” value is given as 0.91 g/g.

For the compound `O=C([O-])C(O)C(O)C(=O)[O-].O=C([O-])C(O)C(O)C(=O)[O-].O=C([O-])C(O)C(O)C(=O)[O-].[Fe+3].[Fe+3]` (centres unmarked) [Fe-Tart, ferric tartrate], the “C. jejuni biofilm formation on plastic coated UV beads (FIG. 9)” value in test [3] was “inhibited C. jejuni biofilm formation”. Also, in the test with E. coli, the “Faecal E. coli counts, day 0 post weaning” value is 8.67 10log cfu/g; the “Faecal E. coli counts, day 4 post weaning” value is recorded as 6.42 10log cfu/g; the “Faecal E. coli counts, day 7 post weaning” value is given as 6.51 10log cfu/g; the “Faecal E. coli counts, day 14 post weaning” value is given as 6.43 10log cfu/g. Also, in the test with lactobacilli, the “Faecal lactobacilli counts, day 0 post weaning” value is on record as 8.84 10log cfu/g; the “Faecal lactobacilli counts, day 4 post weaning” value is listed as 8.94 10log cfu/g; the “Faecal lactobacilli counts, day 7 post weaning” value is reported as 9.48 10log cfu/g; the “Faecal lactobacilli counts, day 14 post weaning” value is reported as 8.79 10log cfu/g. Besides, in test [1] (100 and 300 μM, 72 hours), the “biofilm formation (coverage rate on glass slide)” value is recorded as “inhibits the formation of biofilm”.
